# According to ChEMBL document CHEMBL4270495, “Oleanane-, ursane-, and quinone methide friedelane-type triterpenoid derivatives: Recent advances in cancer treatment” (Eur J Med Chem, 2017):
# Legend:
# HepG2 [1] = test: Cytotoxicity in human HepG2 cells assessed as reduction in cell viability incubated for 72 hrs by cell-titer Glo asay; format: functional, cell-based; conditions: HepG2, 72 h
# Huh-7 = test: Cytotoxicity in human HuH7 cells assessed as reduction in cell viability incubated for 72 hrs by cell-titer Glo asay; format: functional, cell-based; conditions: Huh-7, 72 h
# Hep 3B2 = test: Cytotoxicity in human Hep3B cells assessed as reduction in cell viability incubated for 72 hrs by cell-titer Glo asay; format: functional, cell-based
# HL-60 [2] = test: Cytotoxicity in human HL60 cells assessed as reduction in cell viability incubated for 24 hrs by MTT assay; format: functional, cell-based; conditions: HL-60, 24 h
# MCF7 [3] = test: Cytotoxicity in human MCF7 cells assessed as reduction in cell viability incubated for 48 hrs by SRB assay; format: functional, cell-based; conditions: MCF7, 48 h
# A549 [4] = test: Cytotoxicity in human A549 cells assessed as reduction in cell viability incubated for 48 hrs by SRB assay; format: functional, cell-based; conditions: A549, 48 h
# PC-3 [5] = test: Cytotoxicity in human PC3 cells assessed as reduction in cell viability incubated for 48 hrs by SRB assay; format: functional, cell-based; conditions: PC-3, 48 h
# HT-29 [6] = test: Cytotoxicity in human HT-29 cells assessed as reduction in cell viability incubated for 96 hrs by SRB assay; format: functional, cell-based; conditions: HT-29, 96 h
# A549 [7] = test: Cytotoxicity in human A549 cells assessed as reduction in cell viability incubated for 96 hrs by SRB assay; format: functional, cell-based; conditions: A549, 96 h
# NIH3T3 = test: Cytotoxicity in mouse NIH/3T3 cells assessed as reduction in cell viability incubated for 96 hrs by SRB assay; format: cell-based; conditions: NIH3T3, 96 h
# MCF7 [8] = test: Cytotoxicity in human MCF7 cells assessed as reduction in cell viability; format: functional, cell-based
# HepG2 [9] = test: Cytotoxicity in human HepG2 cells assessed as reduction in cell viability; format: functional, cell-based
# BGC-823 = test: Cytotoxicity in human BGC823 cells assessed as reduction in cell viability incubated for 72 hrs by MTT assay; format: functional, cell-based; conditions: BGC-823, 72 h
# PC-3 [10] = test: Cytotoxicity in human PC3 cells assessed as reduction in cell viability incubated for 72 hrs by MTT assay; format: functional, cell-based; conditions: PC-3, 72 h
# MDA-MB-231 [11] = test: Cytotoxicity in human MDA-MB-231 cells assessed as reduction in cell viability incubated for 24 hrs by MTT assay; format: functional, cell-based; conditions: MDA-MB-231, 24 h
# MCF7 [12] = test: Cytotoxicity in human MCF7 cells assessed as reduction in cell viability incubated for 24 hrs by MTT assay; format: functional, cell-based; conditions: MCF7, 24 h
# 4T1 = test: Cytotoxicity in mouse 4T1 cells assessed as reduction in cell viability incubated for 24 hrs by MTT assay; format: functional, cell-based; conditions: 4T1, 24 h
# HMEC = test: Cytotoxicity in human HMEC cells assessed as reduction in cell viability incubated for 48 hrs by SRB assay; format: cell-based
# ASPC1 = test: Growth inhibition of human AsPC1 cells incubated for 72 hrs by MTT assay; format: functional, cell-based; conditions: ASPC1, 72 h
# AGS [13] = test: Antiproliferative activity in human AGS cells incubated for 3 days by MTT assay; format: functional, cell-based; conditions: 72 h
# HeLa = test: Cytotoxicity in human HeLa cells assessed as reduction in cell viability incubated for 72 hrs by MTT assay; format: functional, cell-based
# HT-29 [14] = test: Cytotoxicity in human HT-29 cells assessed as reduction in cell viability incubated for 72 hrs by MTT assay; format: functional, cell-based; conditions: HT-29, 72 h
# MCF7 [15] = test: Cytotoxicity in human MCF7 cells assessed as reduction in cell viability incubated for 72 hrs by MTT assay; format: functional, cell-based; conditions: MCF7, 72 h
# BJ = test: Cytotoxicity in human BJ cells assessed as reduction in cell viability incubated for 72 hrs by MTT assay; format: functional, cell-based
# A549 [16] = test: Cytotoxicity in human A549 cells assessed as reduction in cell viability incubated for 24 hrs by MTT assay; format: functional, cell-based; conditions: A549, 24 h
# A549 [17] = test: Potency index, ratio of IC50 for Iressa to IC50 for test compound for cytotoxicity in human A549 cells assessed as reduction in cell viability incubated for 24 hrs by MTT assay; format: functional
# MDA-MB-231 [18] = test: Antiproliferative activity in human MDA-MB-231 cells assessed as reduction in cell viability incubated for 24 to 72 hrs by MTT assay; format: functional, cell-based
# MDA-MB-231 [19] = test: Inhibition of cell invasion in human MDA-MB-231 cells; format: functional
# [20] = Cytotoxicity in human A375-S2 cells assessed as reduction in cell viability incubated for 48 hrs by MTT assay; format: functional, cell-based; conditions: A375-S2, 48 h
# PC-3 [21] = test: Cytotoxicity in human PC3 cells assessed as reduction in cell viability incubated for 48 hrs by XTT assay; format: functional, cell-based; conditions: PC-3, 48 h
# Bel-7402 = test: Cytotoxicity in human Bel7402 cells assessed as reduction in cell viability incubated for 72 hrs by MTT assay; format: functional, cell-based; conditions: Bel-7402, 72 h
# H4 = test: Cytotoxicity in human H4 cells assessed as reduction in cell viability incubated for 72 hrs by MTT assay; format: functional, cell-based; conditions: H4, 72 h
# COLO 205 = test: Cytotoxicity in human COLO205 cells assessed as reduction in cell viability incubated for 72 hrs by MTT assay; format: functional, cell-based; conditions: COLO 205, 72 h
# NCI-H1299 = test: Cytotoxicity in human NCI-H1299 cells assessed as reduction in cell viability; format: functional, cell-based
# [22] = Cytotoxicity in human BCP-ALL cells assessed as reduction in cell viability; format: functional, cell-based
# T-ALL = test: Cytotoxicity in human T-ALL cells assessed as reduction in cell viability; format: functional, cell-based
# Daudi = test: Cytotoxicity in human Daudi cells assessed as reduction in cell viability; format: functional, cell-based
# HL-60 [23] = test: Cytotoxicity in human HL60 cells assessed as reduction in cell viability; format: functional, cell-based
# AGS [24] = test: Cytotoxicity in human AGS cells assessed as reduction in cell viability incubated for 24 hrs by MTT assay; format: functional, cell-based
# [25] = Cytotoxicity in human HELF cells assessed as reduction in cell viability incubated for 24 hrs by MTT assay; format: cell-based
# [26] = Cytotoxicity in human […] cells assessed as reduction in cell viability incubated for 72 hrs by MTT assay; format: functional, cell-based
# MDA-MB-231 [27] = test: Cytotoxicity in human MDA-MB-231 cells assessed as reduction in cell viability incubated for 48 hrs by SRB assay; format: functional; conditions: MDA-MB-231, 48 h
smiles,measurement,setting,value
CC1=C(O)C(=O)C=C2C1=CC=C1[C@@]2(C)CC[C@@]2(C)[C@@H]3C[C@](C)(C(=O)OCc4ccccc4)CC[C@]3(C)CC[C@]12C,IC50,HepG2 [1],4.26 µM
same,IC50,Huh-7,2.15 µM
same,IC50,Hep 3B2,2.77 µM
CCC(=O)O[C@H]1CC[C@@]2(C)[C@@H](CC[C@]3(C)[C@@H]2CC=C2[C@@H]4[C@@H](C)[C@H](C)CC[C@]4(C)CC[C@]23C)[C@@]1(C)C(=O)O,IC50,HL-60 [2],14 µM
same,IC50,MCF7 [3],29 µM
same,IC50,A549 [4],29 µM
same,IC50,PC-3 [5],31 µM
COC(=O)[C@]12CCC(C)(C)C[C@H]1C1=CC[C@@H]3[C@@]4(C)C[C@@H](O)[C@H](OS(N)(=O)=O)C(C)(C)[C@@H]4CC[C@@]3(C)[C@]1(C)CC2,IC50,HT-29 [6],3.5 µM
same,IC50,A549 [7],4 µM
same,IC50,NIH3T3,2.2 µM
CC(=O)O/N=C1\CC[C@]2(C)[C@H]3CC=C4[C@@H]5[C@@H](C)[C@H](C)CC[C@]5(C(=O)O)CC[C@@]4(C)[C@]3(C)CC[C@H]2C1(C)C,IC50,MCF7 [8],3.4 µM
same,IC50,HepG2 [9],4.3 µM
CCCC(=O)O[C@H]1CC[C@]2(C)[C@H]3CC=C4[C@@H]5CC(C)(C)CC[C@]5(C(=O)n5ccc(=O)[nH]c5=O)CC[C@@]4(C)[C@]3(C)CC[C@H]2C1(C)C,IC50,BGC-823,0.22 µM
same,IC50,PC-3 [10],0.28 µM
CC(=O)Oc1ccccc1C(=O)O[C@H]1CC[C@]2(C)[C@H]3CC=C4[C@@H]5[C@@H](C)[C@H](C)CC[C@]5(C(=O)O)CC[C@@]4(C)[C@]3(C)CC[C@H]2C1(C)C,IC50,MDA-MB-231 [11],63.9 µM
same,IC50,MCF7 [12],72.2 µM
same,IC50,4T1,62 µM
same,IC50,HMEC,> 100 µM
COC(=O)[C@]12CCC(C)(C)C[C@H]1C1=CC[C@@H]3[C@@]4(C)C/C(=C/n5ccnc5)C(=O)C(C)(C)[C@@H]4CC[C@@]3(C)[C@]1(C)CC2,IC50,ASPC1,< 5 µM
CC1(C)CC[C@]2(C(=O)O)CC[C@]3(C)C(=CC[C@@H]4[C@@]5(C)CC[C@H](OC(=O)CCc6cn(-c7ccc(Cl)cc7)nn6)C(C)(C)[C@@H]5CC[C@]43C)[C@@H]2C1,IC50,AGS [13],8.9 µM
COC(=O)[C@]12CC[C@@H](C)[C@H](C)[C@H]1C1=CC(=O)[C@@H]3[C@@]4(C)C(C=O)=C[C@@](C)(CO)[C@@H]4CC[C@@]3(C)[C@]1(C)CC2,IC50,HeLa,0.3 µM
same,IC50,HT-29 [14],0.59 µM
same,IC50,MCF7 [15],0.74 µM
same,IC50,BJ,3.33 µM
CC1(C)CC[C@]2(C(=O)O)CC[C@]3(C)C(=CC[C@@H]4[C@@]5(C)CC[C@H](O[C@@H]6OC[C@H](O)[C@H](O[C@H]7O[C@H](CO)[C@@H](O)[C@H](O)[C@@H]7O)[C@H]6O)[C@@](C)(CO)[C@@H]5CC[C@]43C)[C@H]2C1,IC50,MCF7 [12],19.3 µM
same,IC50,A549 [16],6.6 µM
same,Ratio IC50,A549 [17],4
CC1=C(O)C(=O)C=C2C1=CC=C1[C@@]2(C)CC[C@@]2(C)[C@@H]3C[C@](C)(C(=O)NCCc4ccccc4)CC[C@]3(C)CC[C@]12C,IC50,HepG2 [1],3.58 µM
same,IC50,Huh-7,1.04 µM
same,IC50,Hep 3B2,1.06 µM
CC1(C)CC[C@]2(C(=O)O)CC[C@]3(C)C(=CC[C@@H]4[C@@]5(C)CC[C@H](OC(=O)NS(=O)(=O)c6ccc(F)cc6)C(C)(C)[C@@H]5CC[C@]43C)[C@@H]2C1,IC50,MDA-MB-231 [18],3.4 µM
same,inhibition (INH),MDA-MB-231 [19],72.5%
COC(=O)[C@]12CC[C@@H](C)[C@H](C)[C@H]1C1=CC(=O)[C@@H]3[C@@]4(C)C(C=O)=C[C@@](C)(COS(C)(=O)=O)[C@@H]4CC[C@@]3(C)[C@]1(C)CC2,IC50,HeLa,0.24 µM
same,IC50,HT-29 [14],0.59 µM
same,IC50,MCF7 [15],0.65 µM
same,IC50,BJ,2.43 µM
CC1(C)CC[C@]2(C(=O)OCc3cn(-c4ccc([N+](=O)[O-])cc4)nn3)CC[C@]3(C)C(=CC[C@@H]4[C@@]5(C)CCC(=O)C(C)(C)[C@@H]5CC[C@]43C)[C@@H]2C1,IC50,[20],< 3 µM
C[C@H]1[C@H](C)CC[C@]2(C)CC[C@]3(C)C(=CC(=O)[C@@H]4[C@@]5(C)CC[C@H](OC(=O)/C=C/c6ccccc6)[C@](C)(C(=O)O)[C@@H]5CC[C@]43C)[C@H]12,IC50,PC-3 [21],3.6 µM
"CC(=O)Oc1cc2c(c(C)c1OC(C)=O)C(S(=O)(=O)O)C=C1C2(C)CC[C@@]2(C)[C@@H]3C[C@](C)(C(=O)O)CC[C@]3(C)CC[C@]12C (single isomer, unassigned)",IC50,Bel-7402,1.73 µM
same,IC50,H4,1.37 µM
same,IC50,COLO 205,0.06 µM
CC1=C(O)C(=O)C=C2C1=CC=C1[C@@]2(C)CC[C@@]2(C)[C@@H]3C[C@](C)(C(=O)O)CC[C@]3(C)CC[C@]12C [CELASTROL],IC50,NCI-H1299,< 1 µM
same,IC50,[22],< 1 µM
same,IC50,T-ALL,< 1 µM
same,IC50,Daudi,< 1 µM
same,IC50,HL-60 [23],< 1 µM
C[C@H]1[C@H](C)CC[C@]2(C(=O)O)CC[C@]3(C)C(=CC[C@@H]4[C@@]5(C)CC[C@H](O)C(C)(C)[C@@H]5CC[C@]43C)[C@H]12 [URSOLIC ACID],IC50,AGS [24],43.3 µM
same,IC50,[25],21.3 µM
same,IC50,[26],26.5 µM
same,GI50,MCF7 [3],21 µM
same,GI50,MDA-MB-231 [27],11.1 µM
same,IC50,HMEC,39.3 µM
